Measured values from US20080279829A1, “Phenyl-(4-Phenyl-Pyrimidin-2-Yl)-Amines For Enhancing Immunotolerance” (priority 2005, published 2008).

System: BALB/c diabetic female mice with C57BI/6 islet allograft
Assay: cellular therapy with in vitro TEST COMPOUND-treated BM-DC in islet allograft transplantation
Assay type: in vivo
Conditions: injected i.v. one day before transplantation
Procedure: To further investigate the effect of TEST COMPOUND on murine DCs bone marrow cells from BALB/c mice are differentiated with GM-CSF into bone marrow derived DCs (BM-DCs) in the presence or absence of TEST COMPOUND (20 nM). BM-DC are left immature or activated with LPS.
BM-DC are injected (3×105, i.v.) into BALB/c diabetic female mice one day before C57BI/6 islet allograft transplantation. Graft survival is monitored by weekly measurement of blood glucose level (*two-tailed t test).

FC(F)(F)c1ccc(Nc2nccc(-c3cccc(Cl)c3)n2)cc1 [Compound B, N-[4-(3-Chloro-phenyl)-pyrimidin-2-yl]-N-(4-trifluoromethyl-phenyl)-amine]
islets allograft acceptance after injection of LPS-activated (mature) treated recipient type BM-DC: significantly prevents islet graft rejection
